Experimental data taken from patent publication US5364615A (priority 1992, dated 1994).
Several values for one entry are separate records, joined by “and”; a condition that tells them apart may be missing. Equal entries are not always repeated. Entries after “also recorded” stand apart in the source; their conditions may differ. Where two headings read alike, the source gives them in different places.

Tests used:
[1] = Delivery efficiency, nebulizer retention and lung half-life of aerosolized pentamidine; parameters: species or system human
Excerpt: As indicated above, Pneumocystis carinii infect the alveoli. […] It should also be understood that the amount of pentamidine deposited in the alveoli may be substantially less than the total amount aerosolized since a large portion is exhaled by the patient or is trapped on the interior surfaces of the nebulizer apparatus. […] This is true regardless of the dose size, duration of inhalation, and type of nebulizer used, Respirgard or Ultravent. […] Furthermore, even with minimization of airway deposition, there is a portion which is still deposited in the patient's airways.
The "amount nebulized" or "amount aerosolized" of the drug means the amount that actually leaves the apparatus as an aerosol, i.e., the amount placed into the apparatus less the amount retained in the reservoir and on the inner surfaces of the apparatus at the conclusion of a treatment session. "[…] of pentamidine delivered to the alveoli" refers to the amount of drug that is estimated to actually reach the alveoli.

Pneumocystis carinii [2] = conditions: cited from earlier work
clinical = conditions: human, serum, inhaled or intranasal, 300 mg
Protocol: Adult patients having or suspected of having AIDS, and who were hospitalized for a fiberoptic bronchoscopy to evaluate diffuse infiltrates on chest radiographs, were studied. The patients were divided into two groups. […] Two patients had received one dose and the other three doses.
Eighteen to 24 hours later both groups underwent fiberoptic bronchoscopy. After inspection of the airways, 3-5 aliquots (20 mL) of normal saline were injected and aspirated from the right middle lobe until at least 40 mL was recovered: C. […] Lavage fluid was centrifuged at 1,000×g for 10 min at 10° C. […] Briefly, proteins were precipitated with acetonitrile containing hexamidine as an internal standard. […] The lower limit of sensitivity of the assay was 2-3 ng/mL. Two sample t-test was used to compare groups: p values of <0.05 were regarded as significant.

Side effects (Example 6) = assay type: in vivo, human
[3] = human, in vivo
Excerpt: Chest radiographs and arterial blood gas tensions were obtained as clinically indicated.

Pneumocystis carinii [4] = test: Post-exposure prophylaxis of PCP (Example 5); assay type: in vivo, human; conditions: for Percent Alive & Free of Relapse: 300 mg once per month
Excerpt: Within 30 days of initiation of prophylaxis, ten patients were omitted due to treatment (9) or relapse (1). Of the 93 patients, 48 had had at least one previous episode of PCP. Two-thirds of the patients were taking AZT at the onset and throughout the duration of the post-exposure prophylaxis. The median and maximum duration of treatment at the time of analysis was 3.1 and 5.2 months.

[5] = Serum pentamidine concentrations (Example 3); assay type: in vivo, human; conditions: aerosol
Pneumocystis carinii [6] = test: Prevention of PCP, different dosages and regimens (Example 6); assay type: in vivo, human
Excerpt: A total of 438 participants were selected on the basis of seropositivity for HIV, and were stratified on the basis of (i) prior PCP (n=250), (ii) Kaposi's sarcoma (n=59), or (iii) ARC (n=129).

[7] = assay type: in vivo, human
Excerpt: (§1) Five patients who developed PCP within 28 days were not evaluated. One hundred (66%) of the patients were concurrently receiving AZT, and 42 (28%) had experienced one prior episode of PCP.

[8] = Adverse reactions and toxicity during PCP therapy (Example 3); conditions: for FEV1/FVC ratio: mean±1 SD
[9] = cited from earlier work
[10] = human, in vivo; remark: listed apart in the source
[11] = Pentamidine concentrations in lavage fluid and plasma, HPLC (Example 1); assay type: in vivo, human
Protocol: For six inhalation patients (1, 4, 6, 7, 15, and 16) and five i.v. patients (2, 3, 5, 8, and 22), plasma samples were obtained at the completion of therapy and at 0.17, 0.5, 1, 1.5, 2, 2.5, 3, 4, 5, 6, 8, 10, 12, and 18 hours following initiation of therapy. For patients 9-14 and 17-21, trough and peak plasma samples were collected for the first three days, then weekly during therapy. Trough and peak samples were obtained on days 2, 3, 4, 5, 7, 11, and 13 for patient 2, days 2, 3, 4, 5, 7, and 12 for patient 3, days 2, 3, 4, 5, 13 and 18 for patient 5, and days 2, 3, 4, 5, and 11 for patient 8.

Pneumocystis carinii [12] = test: Randomized trial 300 mg twice per month vs 600 mg once per month (Example 7); assay type: in vivo, human
Excerpt: as §1

[13] = literature, cited from earlier work
[14] = single 4 mg/kg intravenous dose, AIDS patients with P. carinii; cited from earlier work
[15] = group b, 150 mg every two weeks
[16] = group c, 300 mg every four weeks

N=C(N)c1ccc(OCCCCCOc2ccc(C(=N)N)cc2)cc1 [pentamidine, p,p'-(pentamethylenedioxy)dibenzamidine]
amount delivered to the alveoli ([1]; 300 mg placed in nebulizer, estimate): about 21 mg
absorbed dose ([1]; 600 mg in 6 mL, Respirgard II, 3-4 mL nebulized, estimate): 45 to 60 mg
amount delivered to the alveoli ([1]; 600 mg placed in nebulizer, estimate): about 42 mg
dose remaining in the nebulizer after inhalation ([1]; Respirgard or UltraVent, regardless of dose): approximately one third of the pentamidine dose that is placed into the nebulizer remains in the nebulizer
fraction of total dose delivered to the alveoli ([1]; estimate based on Mallinckrodt technical specifications): about 7%
half-life ([1]; human, lung, inhaled or intranasal, read-out: halflife in the lungs): 21 to 42 days
efficiency of delivery by inhalation ([1]; to alveoli, estimate): 7-10%
Pre therapy DLCO (Pneumocystis carinii [2]; baseline, literature): 59.0 percent predicted
Pre therapy PaO2 (Pneumocystis carinii [2]; baseline, literature): 69.3 torr
Pre therapy Vital Capacity (Pneumocystis carinii [2]; baseline, literature): 70 percent predicted
Successful Treatment W/ Change, % (Pneumocystis carinii [2]; literature): 95%
Successful Treatment w/o Change, % (Pneumocystis carinii [2]; literature): 40%
Post therapy PaO2 (Pneumocystis carinii [2]; post therapy, literature (TMP-DPS: only 8 patients tested)): 87.2 torr
Post therapy DLCO (Pneumocystis carinii [2]; post therapy, literature): 62 percent predicted
Post therapy Vital Capacity (Pneumocystis carinii [2]; post therapy, literature): 80 percent predicted
concentration at 0.5 h (clinical): 13 ng/mL
withdrawals due to toxicity (Side effects (Example 6); all groups): no withdrawals due to toxicity
Cough (Side effects (Example 6); group a, 30 mg every two weeks): 25%
Metallic Taste (Side effects (Example 6); group a, 30 mg every two weeks): 11%
Wheezing (Side effects (Example 6); group a, 30 mg every two weeks): 10%
Cough (Side effects (Example 6); [15]): 34%
Metallic Taste (Side effects (Example 6); [15]): 16%
Wheezing (Side effects (Example 6); [15]): 14%
Cough (Side effects (Example 6); [16]): 34%
Metallic Taste (Side effects (Example 6); [16]): 20%
Wheezing (Side effects (Example 6); [16]): 14%
severe adverse reactions [3]: No patient developed any severe adverse reactions
reduction in the incidence of PCP (Pneumocystis carinii [4]; 300 mg by inhalation once monthly, based on historical controls): 5 fold
Percent Alive & Free of Relapse (Pneumocystis carinii [4]; 0.0 months): 100.0%
Percent Alive & Free of Relapse (Pneumocystis carinii [4]; 2.3 months): 98.57%
Percent Alive & Free of Relapse (Pneumocystis carinii [4]; 2.5 months): 97.12%
Percent Alive & Free of Relapse (Pneumocystis carinii [4]; 2.9 months): 95.53%
Percent Alive & Free of Relapse (Pneumocystis carinii [4]; 3.0 months): 93.85%
Percent Alive & Free of Relapse (Pneumocystis carinii [4]; 3.1 months): 92.08%
Percent Alive & Free of Relapse (Pneumocystis carinii [4]; 3.7 months): 89.78%
Percent Alive & Free of Relapse (Pneumocystis carinii [4]; 5.2 months): 79.81%
delay of relapse (Pneumocystis carinii [4]; single prior episode of PCP): at least 5 months
observed PCP cases (Pneumocystis carinii [4]; single prior episode, vs 10 based on 132 historical controls, p<0.01): 3
serum pentamidine concentration ([5]; 2 patients at end of therapy): 22 ng/mL and 32 ng/mL
serum pentamidine concentration ([5]; 12/14 patients): less than 10 ng/mL
mortality rate (Pneumocystis carinii [6]; 372 participants): 1.6%
relapse rate (Pneumocystis carinii [6]; 372 participants, at least one treatment): 4.6%
deaths due to PCP (Pneumocystis carinii [6]; ARC, group a, 30 mg): 1
PCP Events (Pneumocystis carinii [6]; ARC, group a, 30 mg every two weeks): 2
PCP Events (Pneumocystis carinii [6]; ARC, group b, 150 mg every two weeks): 0
PCP Events (Pneumocystis carinii [6]; ARC, group c, 300 mg every four weeks): 0
PCP Events (Pneumocystis carinii [6]; Kaposi's, group a, 30 mg every two weeks): 0
PCP Events (Pneumocystis carinii [6]; Kaposi's, group b, 150 mg every two weeks): 1
PCP Events (Pneumocystis carinii [6]; Kaposi's, group c, 300 mg every four weeks): 0
relapse rate (Pneumocystis carinii [6]; at least three treatments): 3.2%
participants experiencing relapse (Pneumocystis carinii [6]; of 372 participants): 17
relapse rate (Pneumocystis carinii [6]; prior PCP, at least one treatment, historical controls 24.3%): 5.9%
relapse rate (Pneumocystis carinii [6]; prior PCP, three or more treatments): 4.2%
deaths due to PCP (Pneumocystis carinii [6]; prior PCP, group a, 30 mg): 1
PCP Events (Pneumocystis carinii [6]; prior PCP, group a, 30 mg every two weeks): 6
deaths due to PCP (Pneumocystis carinii [6]; prior PCP, group b, 150 mg): 3
PCP Events (Pneumocystis carinii [6]; prior PCP, group b, 150 mg every two weeks): 5
deaths due to PCP (Pneumocystis carinii [6]; prior PCP, group c, 300 mg): 1
PCP Events (Pneumocystis carinii [6]; prior PCP, group c, 300 mg every four weeks): 3
deaths associated with PCP ([7]; 3 of 146): 2%
deaths due to other causes ([7]; 9 of 146): 6%
patients died ([7]; twelve of 146 evaluable): 8%
FEV1/FVC ratio ([8]; end of therapy): 79.9±15.8%
FEV1/FVC ratio, single treatment ([8]; first 4 patients): no different before and after a single treatment
bronchospasm / airway obstruction ([8]; in vivo): Neither clinical nor spirometric evidence of airway obstruction occurred; also recorded: Clinical bronchospasm was not seen
FEV1/FVC ratio ([8]; initial testing): 76.1±12.2%
Toxicity Req Change of Therapy, % ([8]; n = 15): 0%
patients developing severe toxicity requiring discontinuation ([9]; TMP-SMX oral/parenteral or pentamidine isethionate parenteral): approximately 50%
side effects ([9]; parenteral pentamidine): elevation of liver enzymes, hematologic disturbances with neutropenia and thrombocytopenia, fever, hypocalcemia, and hallucinations
impaired renal function ([9]; patients receiving (parenteral) pentamidine): about 25%
frequent adverse effect observed clinically [10]: transient airway irritation
concentration at 288 h ([11]; human, bronchoalveolar lavage fluid, inhaled or intranasal, inhalation, patient 4, day 12, read-out: mean concentration in repeat lavage): 178 ± 28 ng/mL
concentration at 1656 h ([11]; human, bronchoalveolar lavage fluid, inhaled or intranasal, inhalation, patient 4, day 69 following completion of therapy, read-out: mean concentration in repeat lavage): 5.61 ± 0.78 ng/mL
concentration at 360 h ([11]; human, bronchoalveolar lavage fluid, inhaled or intranasal, inhalation, patient 6, day 15, read-out: mean concentration in repeat lavage): 63 ± 22 ng/mL
concentration at 360 h ([11]; human, bronchoalveolar lavage fluid, inhaled or intranasal, inhalation, patient 12, day 15, read-out: mean concentration in repeat lavage): 45.7 ± 0.9 ng/mL
concentration at 1128 h ([11]; human, bronchoalveolar lavage fluid, inhaled or intranasal, inhalation, patient 14, day 47, read-out: mean concentration in repeat lavage): 3 ± 0.5 ng/mL
concentration at 48 h ([11]; human, bronchoalveolar lavage fluid, iv, patient 2, day 2): 10.9 ± 2.9 ng/mL
concentration at 144 h ([11]; human, bronchoalveolar lavage fluid, iv, patient 5, day 6): 3.4 ± 0.2 ng/mL
Cmax ([11]; human, plasma, iv, read-out: maximum plasma concentration during remainder of therapy, mean): 497 ± 451 ng/mL
plasma samples without detectable drug ([11]; inhalation): approximately two-thirds of the plasma samples contained no detectable drug
lavage fluid concentration, inhalation vs iv ([11]; inhalation patients higher than iv-treated): approximately 10 fold
Plasma max during treatment ([11]; inhalation, highest concentration during remainder of therapy, per patient): 6.1 ng/mL and 21.8 ng/mL and 7.8 ng/mL and 5.0 ng/mL and 13.0 ng/mL and 45.4 ng/mL and 12.3 ng/mL and 6.9 ng/mL and 29.5 ng/mL and 11.5 ng/mL and 79.2 ng/mL and 23.2 ng/mL
Mean concentration in lavage fluid ([11]; inhalation, mean ± SD in (N) consecutive lavages, per patient): 55.3 ± 17.1 ng/mL and 28.6 ± 10 ng/mL and 66.8 ± 16 ng/mL and 30.6 ± 27.5 ng/mL and 16.8 ± 7.3 ng/mL and 49.1 ± 22.5 ng/mL and 149.7 ± 87.2 ng/mL and 92.4 ± 53.9 ng/mL
Plasma conc. on Day 1 ([11]; inhalation, peak during inhalation (patients 1, 4, 6, 7, 15, 16) or at end of inhalation (10-14, 17)): 0.0 ng/mL
Time to max conc. ([11]; inhalation, plasma, per patient): 5 days and 2 days and 1 days and 3 days and 14 days and 8 days
mean plasma concentration ([11]; intravenous, at completion of first infusion): 179 ± 185 ng/mL
attack rate of PCP at 6.38 months (Pneumocystis carinii [12]; 300 mg once per month, previous study): 18%
attack rate of PCP (Pneumocystis carinii [12]; 300 mg twice per month): 5.6%
attack rate of PCP (Pneumocystis carinii [12]; 600 mg once per month): 8.1%
patients who developed PCP (Pneumocystis carinii [12]; mean duration 10.6 months, 10 patients): 6.8%
attack rate of PCP at 6.38 months (Pneumocystis carinii [12]; this trial, p<0.01 vs 300 mg once per month): 3%
Toxicity Req Change of Therapy, % [13]: 55%
rate of severe reactions ([13]; parenteral pentamidine, TMP-SMX): 50%
mean peak serum pentamidine concentration [14]: 612 ng/mL
